Data from PMC12523147, “Thyroid hormone receptor beta signaling is a targetable driver of prostate cancer growth” (Molecular Cancer, 2025).

Target: T1, thyroid hormone receptor β (TRβ) (Homo sapiens, UniProt P10828)
T1 construct: gene THRB
Test: biochemical

T1 sequence (P10828 whole entry): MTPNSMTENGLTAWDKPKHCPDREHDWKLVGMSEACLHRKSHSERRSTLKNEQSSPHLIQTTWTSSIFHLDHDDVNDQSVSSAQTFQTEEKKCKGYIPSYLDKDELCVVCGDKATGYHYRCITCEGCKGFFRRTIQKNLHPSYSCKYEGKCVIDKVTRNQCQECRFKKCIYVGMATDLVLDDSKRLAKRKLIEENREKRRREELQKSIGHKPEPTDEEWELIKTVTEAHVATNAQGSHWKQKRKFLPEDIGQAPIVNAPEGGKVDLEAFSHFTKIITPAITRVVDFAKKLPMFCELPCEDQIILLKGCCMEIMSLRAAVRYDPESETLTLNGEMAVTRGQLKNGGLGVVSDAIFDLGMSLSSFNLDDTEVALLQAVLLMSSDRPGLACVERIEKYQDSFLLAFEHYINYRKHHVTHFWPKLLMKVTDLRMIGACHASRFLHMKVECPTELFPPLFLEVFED

Ki: 1.31 nM
SMILES: Cc1cc(OCC(=O)O)cc(C)c1Cc1cc(C#Cc2ccc([N+](=O)[O-])cc2)c(O)c(C(C)C)c1 [NH-3]
